The test system of experiment [1] is CK2. Conditions: ATP competitive; read-out: CK2 inhibition IC50; cited from earlier work.
For experiment [2], the system named is human prostate tumor cell line. Details: method as in PMID 39698287. Particulars: cited from earlier work.
In experiment [3] the test system is CK2α subunit. Details: method as in PMID 18553057. Conditions: read-out: Inhibition of the kinase activity of the CK2α subunit IC50; cited from earlier work.
Experiment [4] deals with CK2α/CK2β interaction. Particulars: read-out: Inhibition of CK2α/CK2β interaction IC50; cited from earlier work.
Experiment [5] concerns the target T1, CK2 holoenzyme (CK2α2β2) (Homo sapiens, UniProt P68400).
T1 construct: made in house; host or cells: E. coli BL21(DE3)
In words: Capillary electrophoresis assay, inhibition of the CK2 holoenzyme kinase activity. The format is biochemical. As to the method:
The inhibition of the catalytic activity of the CK2 holoenzyme (CK2α2β2) was determined in an enzyme assay. In brief, the CK2 holoenzyme was incubated with the decapeptide […] and ATP. The amount of phosphorylated peptide (Ser7) was recorded by capillary electrophoresis (CE).
The capillary electrophoresis assay to determine the inhibition of the CK2 holoenzyme (CK2α2β2) was performed as described in refs. [40, 46]. The CK2 holoenzyme was recombinantly expressed in E. coli BL21(DE3) and purified according to the protocol by Grankowski et al.. Enzymatic activity was determined in the presence of 1 µg of CK2α2β2, 60 µM of ATP, and 114 µM of the substrate peptide […]. The assay buffer contained 60 mM NaCl and 10 mM MgCl2. Inhibition was determined in three independent experiments at a compound concentration of 10 µM, and the mean value and the standard deviation (SD) were calculated.

Experiment [6] concerns the target T2, CK2α/CK2β interaction (human CK2α1–335, human CK2β1–193) (Homo sapiens, UniProt P68400).
T2 construct: human CK2α^1–335; made in house
T2 sequence (P68400 1-335): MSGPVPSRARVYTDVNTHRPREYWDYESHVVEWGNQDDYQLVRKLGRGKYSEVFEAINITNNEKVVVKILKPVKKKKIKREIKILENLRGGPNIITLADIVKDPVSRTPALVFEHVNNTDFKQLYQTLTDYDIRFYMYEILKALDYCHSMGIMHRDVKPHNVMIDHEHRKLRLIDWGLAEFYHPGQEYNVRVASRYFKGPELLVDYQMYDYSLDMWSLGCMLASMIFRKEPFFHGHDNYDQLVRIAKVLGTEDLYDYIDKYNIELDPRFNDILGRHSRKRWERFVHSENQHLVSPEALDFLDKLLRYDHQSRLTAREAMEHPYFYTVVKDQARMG
In words: Microscale thermophoresis (MST) assay of the CK2α/CK2β subunit interaction. The format is binding. As to the method:
A microscale thermophoresis (MST) assay was used to determine the interaction of the CK2α and CK2β subunits. In this assay, a constant concentration of the fluorescently labeled CK2β subunit was added to increasing concentrations of the CK2α subunit and the thermophoretic shift was recorded, respectively. […] The same experiment was performed in the presence of 20, 50, or 100 µM of the test compounds (see Table 1). An increased KD′ value in the presence of the test compounds was evaluated as the inhibition of the association of the CK2α and CK2β subunits. The increased KD′ value was then transformed together with the employed concentration of the test compound into the Ki value for the inhibition of the CK2α/CK2β association (formula see Supporting Information).
The compounds were investigated at a final concentration of 20, 50, or 100 µM. […] Data analysis and statistical evaluation were conducted with GraphPad Prism v.6 for Windows (GraphPad Software, La Jolla, CA, USA, www.graphpad.com).
(In MST a laser heats a spot of the sample, and binding alters the fluorescence response.)

Counter-ions that a name gives are not always drawn.

T1 sequence (P68400 whole entry): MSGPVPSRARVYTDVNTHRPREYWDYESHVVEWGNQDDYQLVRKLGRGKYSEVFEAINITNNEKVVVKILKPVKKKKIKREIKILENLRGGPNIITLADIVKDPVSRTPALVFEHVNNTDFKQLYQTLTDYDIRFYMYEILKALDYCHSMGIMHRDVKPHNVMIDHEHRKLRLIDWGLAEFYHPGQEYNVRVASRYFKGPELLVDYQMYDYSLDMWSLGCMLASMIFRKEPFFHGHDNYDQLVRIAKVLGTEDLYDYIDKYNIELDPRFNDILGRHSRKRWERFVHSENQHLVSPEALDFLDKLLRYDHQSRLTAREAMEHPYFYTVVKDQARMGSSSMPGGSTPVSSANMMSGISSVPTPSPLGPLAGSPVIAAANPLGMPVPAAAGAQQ

With `O=C1CCc2c(oc3cc(Br)c(O)c(Br)c23)/C1=C/Nc1ccccc1` [2b], in experiment [1], the IC50 was 0.0058 µM. In experiment [2], the Antiproliferative activity entry is “showed antiproliferative activity”.

For the compound `COc1cc([C@H]2c3c([nH]c4ccccc34)[C@@H](C(=O)N3C(=O)OC[C@@H]3Cc3ccccc3)[C@H]3C(=O)OC(=O)[C@@H]23)cc(OC)c1OC` [(+)-4 (W16)], the IC50 in experiment [3] was 20 µM; in experiment [4], […].

In general, inhibition refers to the percentage by which the read-out fell short of the control. As a reminder, the Kd is the concentration at which binding is half-saturated. A low value points to tighter binding. For `COC(=O)[C@H](Cc1c[nH]cn1)NC(=O)[C@H]1c2[nH]c3ccccc3c2[C@H](c2cc(OC)c(OC)c(OC)c2)[C@@H]2C(=O)NC(=O)[C@@H]21` [(+)-20a, Methyl N-{[(3aS,4R,10S,10aS)-1,3-dioxo-10-(3,4,5-trimethoxyphenyl)-1,2,3,3a,4,5,10,10a-octahydropyrrolo[3,4-b]carbazol-4-yl]carbonyl}-(S)-histidinate∙HCl], the IC50 in experiment [5] (CE assay, 60 µM ATP, 114 µM peptide […]) worked out at 2.5 µM. For the same compound, in experiment [5] (first screening, test compound concentration 10 µM, read-out: Enzyme inhibition of CK2 holoenzyme), the inhibition at 10 µM is over 50%. Besides, the affinity in experiment [6], expressed as Kd, was 0.101 ± 0.004 µM. In addition, in experiment [6] (MST, global analysis, KD′ = KD [1 + (ccompound/Ki)], n.s. = KD′ not significantly different from KD, read-out: Inhibition of CK2α/CK2β Interaction Ki), the Ki worked out at 6.1 µM.

These data come from PMC11722180, “Structure–Activity Relationship Studies of Tetracyclic Pyrrolocarbazoles Inhibiting Heterotetrameric Protein Kinase CK2” (Molecules, 2024).
